The numbers were not newly measured in patent US20040191345A1, “New formulations and use thereof” (priority 2003, published 2004), which cites them from elsewhere.

The structures appear in SMILES notation.

For series [1] the following is noted: at room temperature.
The conditions of series [2]: n-octanol / phosphate buffer at pH 7.32.

With `Cc1ccc(O)c(C(CCN(C(C)C)C(C)C)c2ccccc2)c1` (stereo not drawn) [Tolterodine, N,N-diiso-propyl-3-(2-hydroxy-5-methylphenyl)-3-phenylpropanamine], the pKa value is recorded as 9.87. Further, in series [1], the solubility in water entry was “about 11 mg/ml”. The “partition coefficient (Log P)” value in series [2] is 1.83.
